What is called EC50 is the concentration giving half of the maximal effect. As a reminder, the Emax is the size of the effect at its maximum, as opposed to the concentration needed. The term IC50 denotes the point on the concentration scale where inhibition reaches its midpoint. High values mean weaker potency in that assay, low ones greater potency in that assay. Usually Ki stands for a measure of affinity in units of concentration, obtained from inhibition or displacement. Low values mean higher affinity, high ones lower affinity.

Here are results for four compounds from article PMC9917213, “New Insights into Bitopic Orthosteric/Allosteric Ligands of Cannabinoid Receptor Type 2” (International Journal of Molecular Sciences, 2023).

Data set [1] addresses T1, hCB2R (Homo sapiens, UniProt P34972).
T1 construct: host or cells: CHO-K1 (HitHunter cAMP cell line)
As to the kind of experiment: HitHunter cAMP assay: inhibition of forskolin-stimulated cAMP. Type of data set: cell-based. As to conditions: for Emax: read-out: Emax ± SEM. The method, then:
Chinese hamster ovary (CHO)-K1 cells untransfected or stably-expressing human cannabinoid CB2R (hCB2R) were used as previously reported. Cells were maintained at 37 °C, 5% CO2 in F-12/DMEM containing 1 mM L-glutamine, 10% fetal bovine serum (FBS), and 1% Pen/Strep and hygromycin B (300 μg/mL) and G418 (400 μg/mL). HitHunter® (cAMP) CHO-K1 cells stably expressing hCB2R from DiscoveRx (Eurofins, Fremont, CA, USA) were maintained at 37 °C, 5% CO2 in F-12 DMEM containing 10% FBS and 1% Pen/Strep with 800 μg/mL geneticin.
This method was conducted as described previously. The quantification of FSK-stimulated cAMP accumulation was performed using the DiscoveRx HitHunter assay. Twenty thousand cells/well were plated in low-volume 96-well plates and incubated overnight in Opti-MEM containing 1% FBS at 37 °C and 5% CO2. Opti-MEM media was then removed and replaced with cell assay buffer (DiscoveRx), and cells were co-treated at 37 °C with 10 μM FSK and ligands for 90 min. The cAMP antibody solution and cAMP working detection solutions were added to cells (DiscoveRx), and cells were incubated for 60 min at room temperature. cAMP solution A (DiscoveRx) was added, and cells were incubated for an additional 180 min at room temperature before chemiluminescence was measured on a Cytation5 plate reader (top read, gain 200, integration time 10,000 ms).
Post-hoc analyses were performed using Tukey’s (one-way ANOVA) test.

The test system of data set [2] is HMC3 cells. As to the kind of experiment: IL-6 release (ELISA) in LPS/TNFα stimulated HMC3 cells. Type of data set: cell-based, human. The method, then:
The human microglial clone 3 cell line (HMC3) (ATCC® CRL-3304™) was cultured in high glucose DMEM supplemented with 10% FBS, streptomycin ([…]) and penicillin (100 U/mL) (Sigma-Aldrich, Milan, Italy). LPS (Cat. number L4391) and TNFα (Cat. number H8916) were purchased from Sigma-Aldrich (Milan, Italy).
The pro-inflammatory IL-6 levels were evaluated by a specific ELISA assay (RAB0306, Sigma-Aldrich, Milan, Italy) on collected culture media. Briefly, HMC3 cells were exposed to pretreatment with a test compound for 30 min followed by LPS (10 μg/mL)/TNFα (50 ng/mL) for 24 h, used as pro-inflammatory stimuli. Vehicle-treated cells were used as control. In competition experiments, the CB2R antagonist (SR144528, 1 μM; Cayman Chemical Company, Ann Arbor, MA, USA) or the CB2R positive allosteric modulator (EC21a, 10 μM) was administered 15 min before agonist administration.

For data set [3], the system named is HMC3 cells. As to the kind of experiment: MTT cell viability assay. Type of data set: cell-based, human. As to conditions: 24 h. The method, then: Cell viability was evaluated by 3-(4,5-dimethylthiazol-2-yl)-2,5-diphenyltetrazolium bromide (MTT) reagent. Briefly, HMC3 cells were exposed to increasing concentrations of the compound, ranging from 0.1 to 25 µM. After 24 h, 0.5 mg/mL MTT reagent was added to each well, and the cells were incubated for 3 h at 37 °C. Then, 25 µL of the medium was removed from the wells, and 50 µL of DMSO was added. After 10 min incubation at 37 °C, absorbance at OD540 nm was determined with an automated microplate reader (BIO-TEK, Winooski, VT, USA). The percentage of cell viability was calculated as a percentage of vehicle-treated cells used as control.
A general note: Tetrazolium dyes change colour on reduction, which living cells bring about.

Data set [4] in a line: Plasma stability (LC-HRMS), rat plasma. As to conditions: 20 µM, 37 °C, up to 360 min. It is filed as in vitro ADME. As to the method:
(§1) Plasma stability was evaluated at the time points 0, 10, 30, 60, 120, 240, and 360 min over two species, rodent (rat) and human, and assessed by LC-HRMS. Results are expressed as a relative percentage (mean ± SD) with respect to the amount at t = 0 min. JR22a is stable both in rat and human plasma up to the last time point tested (360 min), as can be observed in Figure 6.
(§2) Stock solutions of 1 mg/mL JR22a and procainamide (used as internal standard, IS) were prepared in CH3OH and kept in ice during sample preparation and stored at −20 °C if not in use. The stability was tested in rat and human plasma obtained from Sigma-Aldrich (Milan, Italy).
(§3) JR22a (20 µM) was incubated with plasma at 37 °C under gentle shaking up to […] in triplicates. An aliquot of 20 µL was withdrawn from the mixture and diluted to a final volume of 200 µL of a 2 % TCA solution containing procainamide 1 µM at each time point: 10, 30, 60, 120, 240, and 360 min. Samples were kept in ice for 20 min and then centrifugated at 14,000 rpm for 10 min at 4 °C. The supernatant was diluted 1:1 with water and transferred in vials for the analysis. […]

Data set [5] can be described thus: Plasma stability (LC-HRMS), human plasma. Type of data set: in vitro ADME. The settings on record: 20 µM, 37 °C, up to 360 min. As to the method: as §1, §2, §3
For data set [6], the target named is T1, hCB2R. The data set can be described thus: [3H]CP55,940 radioligand displacement assay, hCB2R. Type of data set: binding. As to the method: (§4) We assessed ligand affinity for JR-22a at hCB1R and hCB2R using a […]
(§5) either receptor. […] At hCB2R, JR-22a
(§6) Figure S1. […] Membranes from CHO-K1 cells stably-expressing hCB1R (a) or […]
(§7) Data were fitted to a non-linear regression (three-parameter model, GraphPad v. 9.0). Data are mean ± S.E.M. of 3 independent experiments performed in triplicate.
(§8) Radioligand Displacement Assay.
(§9) Cells were scraped from flasks, centrifuged, and frozen at −80 °C until required.
(§10) This method was conducted as described previously. Cells were thawed, diluted in Tris buffer (50 mM Tris−HCl and 50 mM Tris−base), and homogenized in a 1 mL handheld homogenizer. hCB1R and hCB2R CHO−K1 cell membranes were collected by cavitation in a pressure cell and sedimented by ultracentrifugation. Pellets were resuspended in TME buffer (50 mM Tris−HCl, 5 mM MgCl2, 1 mM EDTA, pH 7.4), and protein concentration was measured via the Bradford method (Bio-Rad Laboratories, Mississauga, ON). Competition binding experiments were conducted with 1 nM [3H]CP55, 940 and Tris binding buffer (50 mM Tris−HCl, 50 mM Tris−base, 0.1% BSA, pH 7.4, 2 mL). Radioligand binding began with the addition of CHO−K1 cell membranes (50 μg protein per sample). […] Liquid scintillation spectrometry was used to quantify radioactivity. For competition binding experiments, specific binding was equal to the difference in radioactivity with or without 1 μM […]

A further data set concerns the target T2, hCB1R (Homo sapiens, UniProt P21554).
T2 construct: expressed in transfected cells; host or cells: CHO-K1 cell membranes
As to the kind of experiment: [3H]CP55,940 radioligand displacement assay, hCB1R. It is filed as binding. As to conditions: CHO hCB1R membranes, 1 nM [3H]CP55,940, 0.10 nM-10 μM compound, 2 h. The method, then:
as §4, §5, §6, §7, §8, §9, §10

Setting [7] is: pEC50 ± SEM, compound alone, CHO hCB2R, 10 μM FSK, 90 min.

Like-named read-outs stand apart in the source and are kept apart here.

T1 sequence (P34972 whole entry): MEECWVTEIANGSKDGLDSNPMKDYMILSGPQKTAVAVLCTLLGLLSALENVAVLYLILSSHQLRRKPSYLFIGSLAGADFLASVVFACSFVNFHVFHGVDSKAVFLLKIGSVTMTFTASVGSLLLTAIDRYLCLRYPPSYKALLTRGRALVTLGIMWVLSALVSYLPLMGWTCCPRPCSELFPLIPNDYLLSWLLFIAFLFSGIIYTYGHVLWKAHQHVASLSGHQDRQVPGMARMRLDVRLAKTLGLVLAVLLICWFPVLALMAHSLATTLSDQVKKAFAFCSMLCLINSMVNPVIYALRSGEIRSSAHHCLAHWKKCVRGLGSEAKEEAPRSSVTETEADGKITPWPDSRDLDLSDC
T2 sequence (P21554 whole entry): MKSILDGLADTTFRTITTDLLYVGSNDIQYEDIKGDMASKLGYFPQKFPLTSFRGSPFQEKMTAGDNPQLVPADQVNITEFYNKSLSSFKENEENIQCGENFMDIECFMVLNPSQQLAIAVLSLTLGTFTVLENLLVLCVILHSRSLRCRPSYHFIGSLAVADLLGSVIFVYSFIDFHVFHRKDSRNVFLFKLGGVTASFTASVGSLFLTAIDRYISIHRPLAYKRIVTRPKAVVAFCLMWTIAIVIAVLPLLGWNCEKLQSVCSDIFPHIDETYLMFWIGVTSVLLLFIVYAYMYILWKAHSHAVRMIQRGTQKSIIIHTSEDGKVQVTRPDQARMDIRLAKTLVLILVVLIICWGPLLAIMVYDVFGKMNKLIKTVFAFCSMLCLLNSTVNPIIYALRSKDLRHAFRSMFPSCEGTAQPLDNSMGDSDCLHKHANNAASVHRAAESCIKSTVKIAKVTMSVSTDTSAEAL

Take `Cc1c(Br)cn(Cc2ccc(F)cc2)c(=O)c1NC(=O)C1CCCCCC1` [EC21a, reference compound]: on hCB2R [1], the midpoint of the response, the EC50, lay at 30 nM and the Emax was -14 ± 7%. Moreover, the “Activity alone in cAMP inhibition” value at hCB2R [1] (EC21a alone, Emax not different from 0) was “inactive”.
On to `Cc1c(Br)cn(CCCc2cn(CCCCC(=O)NC3CCC(NC(=O)c4cc5cccnc5n(Cc5ccc(F)cc5)c4=O)CC3)nn2)c(=O)c1NC(=O)C1CCCCCC1` (stereo not drawn) [JR14a], for which the “pEC50 ± SEM” value on hCB2R [1] (compound alone, CHO hCB2R, 10 μM FSK, 90 min) amounted to 7.6 ± 0.9. In addition, the concentration for a half-maximal effect (EC50) on hCB2R [1] (compound alone, CHO hCB2R, 10 μM FSK, 90 min, read-out: EC50 (in brackets after pEC50) (converted)) was 24 nM. Also, the Emax at hCB2R [1] worked out at 29 ± 5%.
For `Cc1c(Br)cn(CCCc2cn(CCCCCn3c(=O)c(C(=O)NC4CCC(C)CC4)cc4cccnc43)nn2)c(=O)c1NC(=O)C1CCCCCC1` (stereo not drawn) [JR22a], the 50% effective concentration (EC50) on hCB2R [1] (EC50 (in brackets after pEC50), compound alone, CHO hCB2R, 10 μM FSK, 90 min) is 698 nM; on hCB2R [1] (setting [7]), 794 nM. Further, the Emax at hCB2R [1] was 53 ± 6%. For the same compound, the “IL-6 levels in the cultured medium” value in the data set on HMC3 cells [2] (1 and 10 μM, 30 min pre-treatment, then LPS (10 μg/mL)/TNFα (50 ng/mL) 24 h) was “significant dose-dependent decrease”. The “Effect of EC21a co-treatment on ability of JR22a to prevent IL-6 release” value in the data set with HMC3 cells [2] (EC21a 10 μM, equimolar with JR22a, LPS/TNFα 24 h) was “did not interfere”. In the data set on HMC3 cells [2] (SR144528 1 μM, 15 min before JR22a, LPS/TNFα 24 h), the “Effect of SR144528 pre-administration on the JR22a effect on IL-6 release” value is listed as “almost completely abolished”. Also, the “Cell viability (MTT)” value with HMC3 cells [3] (25 μM) is “significant inhibition of cell viability”. Besides, the “Cytotoxic effect (cell viability, MTT)” value in the data set on HMC3 cells [3] (1 and 10 μM) is “no cytotoxic effect”. In addition, the Plasma stability result in data set [4] and in data set [5] was “stable” each time. Moreover, on hCB2R [6], the 50% inhibitory concentration (IC50) was 95 nM. At hCB2R [6], this compound yielded a Ki of 95 nM. At hCB1R, the “Displacement of [3H]CP55,940” value is on record as “not able to displace”.
At hCB2R [1] (setting [7]), `Cc1c(Br)cn(CCCCCCCn2c(=O)c(C(=O)NC3CCC(C)CC3)cc3cccnc32)c(=O)c1NC(=O)C1CCCCCC1` (stereo not drawn) [JR64a] showed an EC50 of 2.51 nM. For the same compound, the Emax at hCB2R [1] worked out at 19 ± 6%.
